Data as given in patent US20080220056A1, “Treatment for liver disease” (UNIVERSITY OF SOUTHAMPTON, priority 2002, published 2008).

Tests used:
[1] = tested on: rat hepatic stellate cells; assay: Low molecular weight DNA fragmentation (nucleosomal ladder) in rat hepatic stellate cells; format: cell-based; settings: rat HSC; 1.5 μmol/L; up to four hours
Method: Hepatic stellate cells cultured in 35-mm diameter dishes (Greiner) were harvested, pelleted by centrifugation and DNA fragmentation determined as outlined elsewhere (Elsharkawy et al., Hepatology (1999) 30:761-769). Propidium Iodide Flow-Activated Cell Sorting Analysis Detached cells were pelleted by centrifugation, washed in PBS, and resuspended in HYPO buffer (0.1% wt/vol) Na3Citrate and 0.1% (wt/vol) Triton™ X-100 containing […] propidium iodide and incubated for 1 hour. The cells were then analyzed by fluorescence-activated cell sorter (FACS) with a Becton Dickinson (San Jose, Calif.) FACScan instrument using a 488 nm excitation wavelength with a band pass filter set at 530 nm. Attached cells were scraped in HYPO buffer after washing cells with PBS.
The effect of gliotoxin on the cleavage of DNA to a nucleosomal ladder was examined because this phenomenon is characteristic of apoptosis. Culture activated (14-day) rat hepatic stellate cells in six well plates were treated with either 0.05% (vol/vol) DMSO for four hours or 1.5 μmol/L gliotoxin for zero hours, half an hour, one hour, two hours or four hours. At each time point, both detached and attached cells were harvested together and low molecular weight DNA (20,000 g supernatant) fragmentation determined as outlined in the materials and methods section. At least three separate experiments were performed. 1 kilobase DNA ladder (Promega) was used as a molecular weight marker.
The effect of various compounds on DNA laddering was then determined. Culture-activated (14-day) rat hepatic stellate cells in six-well plates were treated with:
After fours hours of treatment, DNA fragmentation was determined.
Culture activated (14 day) rat hepatic stellate cells in six well plates were treated with: • (a) 0.05% (vol/vol) DMSO; • (b) 1.5 μmol/L gliotoxin; • (c) 1.5 μmol/L gliotoxin with 100 μmol/L tamoxifen; • (d) 1.5 μmol/L gliotoxin with […] actinomycin d; • (e) 1.5 μmol/L gliotoxin with 10 μmol/L cycloheximide; • (f) 1.5 μmol/L gliotoxin with 10 μmol/L cyclosporin; • (g) 1.5 μmol/L gliotoxin with […] m-iodobenzylguanidine; • (h) 1.5 μmol/L gliotoxin with 50 μmol/L quin-2-am; • (i) 50 μmol/L guin-2-am alone; • (j) 250 μmol/L m-iodobenzylguanidine; • (k) 10 μmol/L cyclosporin; • (l) 10 μmol/L cycloheximide; • (m) 1 μg/ml actinomycin d; or • (n) 100 μmol/L tamoxifen.
After four hours of treatment, DNA fragmentation was determined as outlined in Materials and Methods.

[2] = tested on: carbon tetrachloride model of liver fibrosis; assay: Carbon tetrachloride (in vivo) model of liver fibrosis, single gliotoxin injection; parameters: species or system rat; settings: for Serum ALP / Serum ALT: killed 24 hours after gliotoxin
Method: Rats were randomly sorted into groups and treated with 2 mL CCl4:olive oil (1:1 [vol/vol])/kg body weight by intraperitoneal injection twice weekly to cause liver fibrosis. Control animals were treated with 1 mL olive oil/kg body weight by intraperitoneal injection. Gliotoxin was administered at up to 3 mg gliotoxin/kg body weight by intraperitoneal injection. Gliotoxin was dissolved in dimethyl sulfoxide (DMSO) as a vehicle, and control animals received DMSO alone.
At the required time, rats were killed by carbon dioxide asphyxiation and tissues removed for analysis. Serum was prepared and analyzed for alkaline phosphatase and alanine aminotransferase activities essentially as previously described. (Wright et al., Biochem. Pharmacol., (1992) 43:237-243) Histochemical staining of formalin-fixed liver sections with H&E, Sirius red, and immunochemical staining for α-smooth muscle actin were performed essentially as previously described (Iredale et al.,—1998—supra)
The effect of a single injection of gliotoxin on α-smooth muscle actin liver immunostaining after treatment for seven weeks with carbon tetrachloride was then determined. One day after the final injection of carbon tetrachloride, rats were administered gliotoxin and killed after a further day.
The effect of a single injection of gliotoxin on liver TUNEL staining after treatment for seven weeks with carbon tetrachloride was measured. One day after the final injection of carbon tetrachloride, rats were administered gliotoxin and then killed after a further day. Control animals received DMSO alone in place of gliotoxin. Liver sections from the rats were TUNEL stained with or without the incorporation of dUTP in the staining protocol. Sections were then counterstained with hematoxylin.
The effect of a single injection of gliotoxin on liver sirius red staining after treatment for seven weeks with carbon tetrachloride was then determined. As before, one day after the final injection of carbon tetrachloride, rats were administered gliotoxin and killed after a further day.

[3] = single gliotoxin injection 0.3 mg/kg i.p., CCl4 twice weekly seven weeks
[4] = single gliotoxin injection 0.3 mg/kg i.p., no CCl4 (olive oil seven weeks)
[5] = single gliotoxin injection 3 mg/kg i.p., CCl4 twice weekly seven weeks
[6] = single gliotoxin injection 3 mg/kg i.p., no CCl4 (olive oil seven weeks)

CN1C(=O)[C@]23CC4=CC=C[C@H](O)[C@H]4N2C(=O)[C@@]1(CO)SS3 [gliotoxin]
cleavage of DNA to a nucleosomal ladder [1]: time dependent increase in DNA cleavage to a nucleosomal ladder
reduction in number of α-smooth muscle actin-positive cells in CCl4 treated rat liver ([2]; single dose of 3 mg/kg body wt): 57%
Liver α-sma staining (number of α-sma-positive cells) [2, 3]: 35 ± 11.4
Sirius red staining (mid intralobular μm) [2, 3]: 9 ± 2.3 μm
Serum ALP [2, 3]: 790 ± 128 μ/mL
Serum ALT [2, 3]: 1310 ± 342 μ/mL
Liver α-sma staining (number of α-sma-positive cells) [2, 4]: 2.5 ± 0.70
Sirius red staining (mid intralobular μm) [2, 4]: 0 μm
Serum ALP [2, 4]: 336 ± 48 μ/mL
Serum ALT [2, 4]: 59 ± 4 μ/mL
Liver α-sma staining (number of α-sma-positive cells) [2, 5]: 16 ± 6.4
Sirius red staining (mid intralobular μm) [2, 5]: 7 ± 3.6^£ μm
Serum ALP [2, 5]: 755 ± 295 μ/mL
Serum ALT [2, 5]: 1740 ± 1100 μ/mL
Liver α-sma staining (number of α-sma-positive cells) [2, 6]: 1.2 ± 0.24
Sirius red staining (mid intralobular μm) [2, 6]: 0 μm
Serum ALP [2, 6]: 269 ± 25 μ/mL
Serum ALT [2, 6]: 50 ± 5 μ/mL
TUNEL-positive cells in liver regions staining for α-smooth muscle actin ([2]; single gliotoxin injection after seven weeks CCl4): increase in the number of TUNEL-positive cells
fibrosis on blinded examination of sirius red stained liver sections ([2]; single injection of gliotoxin at 3 mg/kg after seven weeks CCl4): significantly reduced fibrosis
change in serum liver enzyme levels ([2]; single injection of gliotoxin to control or carbon tetrachloride treated rats): did not result in any significant change in serum liver enzyme levels
